Read-outs that look alike come from different tables or passages of the source.
Legend:
[1] = tested on: HCV genotype 1b (Con1) replicon in HUH-7 cells; assay: HCV replicon luciferase reporter assay, genotype 1b; format: cell-based; conditions: Hepatitis C virus, Huh-7, 72 h, 3 days incubation
Summary of the method: (§1)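 Replicon inhibition for both genotypes was measured as Renilla luciferase signal (EnduRen, 7.5 μM final, 2 h) after 3-day, 37° C exposure of replicon-bearing HUH-7 cells in 4% FCS DMEM, 0.5% DMSO. The 1b construct carries S1179I; the 1a H77 construct carries P1496L and S2204I. Twenty-point, 3-fold dilutions were fitted four-parametrically for EC50, and CC50 was taken from multiplexed Cell Titer-Blue.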

[2] = tested on: HCV genotype 1a (H77 strain) replicon in HUH-7 cells; assay: HCV replicon luciferase reporter assay, genotype 1a; format: cell-based; conditions: Hepatitis C virus, Huh-7, 72 h, 3 days incubation
Summary of the method: as §1

[3] = HCV genotype 1b replicon luciferase, read-out: LE_1b (EC50, range)
[4] = HCV genotype 1a replicon luciferase, read-out: LE_1a (EC50, range)
[5] = GETYPE1B, HCV genotype 1b replicon luciferase, read-out: LE_1b (EC50, range)
[6] = GETYPE1A, HCV genotype 1a replicon luciferase, read-out: LE_1a (EC50, range)
[7] = HCV genotype 1b replicon luciferase assay, range class, read-out: LE_1b (EC50, range)
[8] = HCV genotype 1a replicon luciferase assay, range class, read-out: LE_1a (EC50, range)

SMILES | EC50 [1, 3] [nM] | EC50 [2, 4] [nM] | also measured
CC[C@@H]1C[C@@H](C)CC/C=C\[C@@H]2C[C@@]2(C(=O)NS(=O)(=O)C2(C)CC2)NC(=O)[C@@H]2C[C@@H](Oc3nc4c(c5ccccc35)OCCC4)CN2C(=O)[C@H]1NC(=O)OC(C)(C)C [Compound 6023, tert-butyl ((2R,6S,7R,9S,13aS,14aR,16aS,Z)-2-((3,4-dihydro-2H-pyrano[3,2-c]isoquinolin-6-yl)oxy)-7-ethyl-9-methyl-14a-(((1-methylcyclopropyl)sulfonyl)carbamoyl)-5,16-dioxo-1,2,3,5,6,7,8,9,10,11,13a,14,14a,15,16,16a-hexadecahydrocyclopropa[e]pyrrolo[1,2-a][1,4]diazacyclopentadecin-6-yl)carbamate] | 4.82 to 103 | 4.82 to 103 | 
[2H]C([2H])([2H])C(OC(=O)N[C@@H]1C(=O)N2C[C@H](Oc3nccc4cc(OC(C)C)ccc34)C[C@H]2C(=O)N[C@]2(C(=O)NS(=O)(=O)C3CC3)C[C@H]2/C=C\CC[C@H](C)C[C@H]1C)(C([2H])([2H])[2H])C([2H])([2H])[2H] [Compound 5154, 1,1,1,3,3,3-hexadeutero-2-(trideuteromethyl)propan-2-yl((2R,6S,7R,9S,13aS,14aR,16aS,Z)-14a-((cyclopropylsulfonyl)carbamoyl)-2-((6-isopropoxyisoquinolin-1-yl)oxy)-7,9-dimethyl-5,16-dioxo-1,2,3,5,6,7,8,9,10,11,13a,14,14a,15,16,16a-hexadecahydrocyclopropa[e]pyrrolo[1,2-a][1,4]diazacyclopentadecin-6-yl)carbamate] | 4.82 to 103 | 4.82 to 103 | 
C=COc1cnc(O[C@@H]2C[C@H]3C(=O)N[C@]4(C(=O)NS(=O)(=O)C5(C)CC5)C[C@H]4/C=C\CC[C@@H](C)C[C@@H](C)[C@H](NC(=O)OC(C)(C)C)C(=O)N3C2)c2ccccc12 [Compound 4134, tert-butyl (2R,6S,7R,9R,13aS,14aR,16aS,Z)-7,9-dimethyl-14a-(1-methylcyclopropylsulfonylcarbamoyl)-5,16-dioxo-2-(4-(vinyloxy)isoquinolin-1-yloxy)-1,2,3,5,6,7,8,9,10,11,13a,14,14a,15,16,16a-hexadecahydrocyclopropa[e]pyrrolo[1,2-a][1,4]diazacyclopentadecin-6-ylcarbamate] | < 5.46 | < 5.46 | 
CCOc1cnc(O[C@@H]2C[C@H]3C(=O)N[C@]4(C(=O)NS(=O)(=O)C5(C)CC5)C[C@H]4/C=C\CC[C@@H](C)C[C@@H](CC)[C@H](NC(=O)OC(C)(C)C(F)(F)F)C(=O)N3C2)c2ccc(OC)cc12 [Compound 4227] |  |  | EC50 [1, 5]: < 5.46 nM; EC50 [2, 6]: < 5.46 nM
COc1nnc(O[C@@H]2C[C@H]3C(=O)N[C@]4(C(=O)NS(=O)(=O)C5(C)CC5)C[C@H]4/C=C\CC[C@H](C)C[C@@H](C)[C@H](NC(=O)NC(C)(C)C)C(=O)N3C2)c2ccccc12 [Compound 5011, (2R,6S,7R,9S,13aS,14aR,16aS,Z)-6-(3-(tert-butyl)ureido)-2-((4-methoxyphthalazin-1-yl)oxy)-7,9-dimethyl-N-((1-methylcyclopropyl)sulfonyl)-5,16-dioxo-1,2,3,5,6,7,8,9,10,11,13a,14,14a,15,16,16a-hexadecahydrocyclopropa[e]pyrrolo[1,2-a][1,4]diazacyclopentadecine-14a-carboxamide] | 4.82 to 103 | 4.82 to 103 | EC50 ([1]; HCV genotype 1b replicon luciferase, read-out: LE_1b (EC50)): 14.2 nM; EC50 ([2]; HCV genotype 1a replicon luciferase, read-out: LE_1a (EC50)): 41.1 nM
COc1ccc2c(O[C@@H]3C[C@H]4C(=O)N[C@]5(C(=O)NS(=O)(=O)C6(C)CC6)C[C@H]5/C=C\CC[C@H](C)C[C@@H](C)[C@H](NC(=O)OC(C)(C)C)C(=O)N4C3)nc(N(C)C)cc2c1 [Compound 3108, tert-butyl ((2R,6S,7R,9S,13aS,14aR,16aS,Z)-2-((3-(dimethylamino)-6-methoxyisoquinolin-1-yl)oxy)-7,9-dimethyl-14a-(((1-methylcyclopropyl)sulfonyl)carbamoyl)-5,16-dioxo-1,2,3,5,6,7,8,9,10,11,13a,14,14a,15,16,16a-hexadecahydrocyclopropa[e]pyrrolo[1,2-a][1,4]diazacyclopentadecin-6-yl)carbamate] |  |  | EC50 [1, 7]: 4.82 to 103 nM; EC50 [2, 8]: 4.82 to 103 nM
COc1cc2cc(F)ccc2c(O[C@@H]2C[C@H]3C(=O)N[C@]4(C(=O)NS(=O)(=O)C5(CF)CC5)C[C@H]4/C=C\CC[C@@H](C)C[C@@H](C)[C@H](NC(=O)OC(C)(C)C)C(=O)N3C2)n1 [Compound 3210, tert-butyl ((2R,6S,7R,9R,13aS,14aR,16aS,Z)-2-((6-fluoro-3-methoxyisoquinolin-1-yl)oxy)-14a-(((1-(fluoromethyl)cyclopropyl)sulfonyl)carbamoyl)-7,9-dimethyl-5,16-dioxo-1,2,3,5,6,7,8,9,10,11,13a,14,14a,15,16,16a-hexadecahydrocyclopropa[e]pyrrolo[1,2-a][1,4]diazacyclopentadecin-6-yl)carbamate] | 0.1 to 0.5 | 1.01 to 5 | 
COCC(C)(C)OC(=O)N[C@@H]1C(=O)N2C[C@H](Oc3ncc(OC)c4ccccc34)C[C@H]2C(=O)N[C@]2(C(=O)NS(=O)(=O)C3(CF)CC3)C[C@H]2/C=C\CC[C@H](C)C[C@H]1C [Compound 1049, 1-methoxy-2-methylpropan-2-yl((2R,6S,7R,9S,13aS,14aR,16aS,Z)-14a-(((1-(fluoromethyl)cyclopropyl)sulfonyl)carbamoyl)-2-((4-methoxyisoquinolin-1-yl)oxy)-7,9-dimethyl-5,16-dioxo-1,2,3,5,6,7,8,9,10,11,13a,14,14a,15,16,16a-hexadecahydrocyclopropa[e]pyrrolo[1,2-a][1,4]diazacyclopentadecin-6-yl)carbamate] |  |  | EC50 [1, 7]: 4.82 to 103 nM; EC50 [2, 8]: 4.82 to 103 nM
CC[C@@H]1C[C@H](C)CC/C=C\[C@@H]2C[C@@]2(C(=O)NS(=O)(=O)C2(C)CC2)NC(=O)[C@@H]2C[C@@H](Oc3ncc(OC)c4cc(OC)ccc34)CN2C(=O)[C@H]1NC(=O)OC(C)(C)C [Compound 4196, tert-butyl (2R,6S,7R,9R,13aS,14aR,16aS,Z)-2-(4,6-dimethoxyisoquinolin-1-yloxy)-7-ethyl-9-methyl-14a-(1-methylcyclopropylsulfonylcarbamoyl)-5,16-dioxo-1,2,3,5,6,7,8,9,10,11,13a,14,14a,15,16,16a-hexadecahydrocyclopropa[e]pyrrolo[1,2-a][1,4]diazacyclopentadecin-6-ylcarbamate] | < 5.46 | < 5.46 | 
CC[C@@H]1C[C@@H](C)CC/C=C\[C@@H]2C[C@@]2(C(=O)NS(=O)(=O)C2(C)CC2)NC(=O)[C@@H]2C[C@@H](Oc3nccc4c(OC)cccc34)CN2C(=O)[C@H]1NC(=O)OC(C)(C)C [Compound 3023, tert-butyl ((2R,6S,7R,9S,13aS,14aR,16aS,Z)-7-ethyl-2-((5-methoxyisoquinolin-1-yl)oxy)-9-methyl-14a-(((1-methylcyclopropyl)sulfonyl)carbamoyl)-5,16-dioxo-1,2,3,5,6,7,8,9,10,11,13a,14,14a,15,16,16a-hexadecahydrocyclopropa[e]pyrrolo[1,2-a][1,4]diazacyclopentadecin-6-yl)carbamate] |  |  | EC50 [1, 7]: 4.82 to 103 nM; EC50 [2, 8]: 4.82 to 103 nM
COc1ccc2c(O[C@@H]3C[C@H]4C(=O)N[C@]5(C(=O)NS(=O)(=O)C6(CF)CC6)C[C@H]5/C=C\CC[C@@H](C)C[C@@H](C)[C@H](NC(=O)OC(C)(C)C(F)(F)F)C(=O)N4C3)nc(-c3ccc(OC(C)C)cc3)cc2c1 [Compound 4128] |  |  | EC50 [1, 5]: < 5.46 nM; EC50 [2, 6]: < 5.46 nM
C[C@@H]1CC/C=C\[C@@H]2C[C@@]2(C(=O)NS(=O)(=O)C2(C)CC2)NC(=O)[C@@H]2C[C@@H](Oc3nc4c(c5ccccc35)CCCO4)CN2C(=O)[C@@H](NC(=O)OC(C)(C)C(F)(F)F)[C@H](C)C1 [Compound 6046, 1,1,1-trifluoro-2-methylpropan-2-yl((2R,6S,7R,9R,13aS,14aR,16aS,Z)-2-((2,3-dihydro-1H-pyrano[2,3-c]isoquinolin-6-yl)oxy)-7,9-dimethyl-14a-(((1-methylcyclopropyl)sulfonyl)carbamoyl)-5,16-dioxo-1,2,3,5,6,7,8,9,10,11,13a,14,14a,15,16,16a-hexadecahydrocyclopropa[e]pyrrolo[1,2-a][1,4]diazacyclopentadecin-6-yl)carbamate] | 0.51 to 1 | 1.01 to 5 | 
COc1cnc(O[C@@H]2C[C@H]3C(=O)N[C@]4(C(=O)NS(=O)(=O)C5(CO)CC5)C[C@H]4/C=C\CC[C@@H](C)C[C@@H](C)[C@H](NC(=O)OC(C)(C)C)C(=O)N3C2)c2ccccc12 [Compound 4114, tert-butyl (2R,6S,7R,9R,13aS,14aR,16aS,Z)-14a-(1-(hydroxymethyl)cyclopropylsulfonylcarbamoyl)-2-(4-methoxyisoquinolin-1-yloxy)-7,9-dimethyl-5,16-dioxo-1,2,3,5,6,7,8,9,10,11,13a,14,14a,15,16,16a-hexadecahydrocyclopropa[e]pyrrolo[1,2-a][1,4]diazacyclopentadecin-6-ylcarbamate] | 4.82 to 103 | 4.82 to 103 | 
